For the test, the target named is T1, B-Raf kinase (Homo sapiens, UniProt P15056).
T1 construct: purchased Upstate 14-530
T1 sequence (P15056 416-766 limits assumed): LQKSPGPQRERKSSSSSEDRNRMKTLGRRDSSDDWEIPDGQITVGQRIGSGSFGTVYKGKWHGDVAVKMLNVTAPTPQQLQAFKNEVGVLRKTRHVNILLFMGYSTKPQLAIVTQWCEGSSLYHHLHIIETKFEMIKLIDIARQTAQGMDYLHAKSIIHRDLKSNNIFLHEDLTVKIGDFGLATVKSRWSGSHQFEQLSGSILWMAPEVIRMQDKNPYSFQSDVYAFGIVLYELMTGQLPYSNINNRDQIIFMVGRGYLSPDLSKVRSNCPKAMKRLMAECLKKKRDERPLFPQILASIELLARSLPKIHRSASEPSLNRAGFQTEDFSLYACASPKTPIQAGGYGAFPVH
In words: B-Raf kinase assay (IMAP fluorescence polarisation, B-raf/MEK1/ERK2 cascade). The format is biochemical. Particulars: B-raf 0.2 U/mL, 50 μM ATP, 60 min pre-incubation, FP readout. As for the experimental part:
Other assays are known in the literature and could be readily performed by those of skill in the art.
9) B-raf, active enzyme (for example #14-530, Upstate)
13) Fluorescein labeled substrate peptide (“ERK-tide”; IPTTPITTTYFFFK-5FAM-COOH), (for example #R7292/#R7293, Molecular Devices)
Prepare fresh Kinase Reaction buffer (KR-buffer) just before use: 50 mL Reaction buffer+50 μl 1 M DTT (1 mM final concentration). Serial dilutions of test compounds are made in 100% DMSO. For example a 10 points half log serial dilution from 1 mM to 31.6 nM leading to a final compound concentration range in the assay from 10 μM to 0.316 nM can be used.
1) Add 2.5 μL/well test compound in KR-buffer (this solution contains 8% DMSO) or (in minimum, maximum and background wells) 2.5 μL/well KR-buffer containing 8% DMSO. (Final DMSO concentration in the assay is 1%).
2) Add 5 μL/well 0.8 U/mL B-raf enzyme diluted in KR-buffer (final B-raf enzyme concentration in the assay is 0.2 U/mL) to all wells.
3) Pre-incubate 60 minutes at room temperature in the dark.
4) Add 5 μL/well 256 ng/mL MEK1 enzyme diluted in KR-buffer (final MEK1 enzyme concentration in the assay is 64 ng/mL) to all wells.
5) Add 5 μL/well 2.4 μg/mL Erk2 enzyme with 200 nM Fl-peptide substrate diluted in KR-buffer (final concentration in the assay of Erk2 enzyme is 600 ng/mL and of Fl-peptide substrate is 50 nM) to all wells except the background wells. Add here 5 μL/well 2.4 μg/mL Erk2 enzyme without 200 nM Fl-peptide substrate.
6) Add 2.5 μL/well 400 μM ATP to minimum and compound wells (50× dilution of the mM stock in KR-buffer, final ATP concentration in the assay is 50 μM) or (in maximum wells) 2.5 μl/well KR-buffer.
7) Incubate 60 minutes at 30° C. in the dark.
8) Add 20 μL/well IMAP Progressive Binding Solution (IMAP Progressive Binding Solution: 75% 1× buffer A and 25% 1× buffer B with 1:900 dilution of Progressive Binding Reagent, all kit contents) to all wells.
9) Incubate 60 minutes at room temperature in the dark.
10) Read the FP signal on Envision multi-label reader.
On every 384-well assay plate, 16-18 wells are used as minimum wells (wells without inhibitor, 0% effect), 16-18 wells are used as maximum wells (wells without ATP, 100% effect). 16 wells are used for measuring the background signal (everything but not substrate). For all assay plates duplicates are prepared.
Run as two independent experiments (N=2) on duplicate plates (n=2).
IC50 Determinations: mP values of compound test wells are converted to percent effect based on 0% effect and 100% effect controls. Dose-response curves were generated from percent effect data plotted against test compound concentration, each in duplicate, from 10 point serial dilutions of inhibitory compounds. To generate IC50 values, the dose-response curves were fitted to a standard sigmoidal curve and IC50 values were derived by nonlinear regression analysis.
Take `COc1ccc2c(c1)C(=O)N(c1cc(NC(=O)c3cccc(C(C)(C)C#N)c3)ccc1C)C2` [Compound 1-1, 3-(2-cyanopropan-2-yl)-N-(3-(6-methoxy-1-oxoisoindolin-2-yl)-4-methylphenyl)benzamide]: the IC50 (as a rule, the concentration needed to halve the response being measured) was 50 to 100 nM.

`Cc1ccc(NC(=O)c2cccc(C(C)(C)C#N)c2)cc1N1CC(c2ccccc2)CC1=O` (stereo not drawn) [Compound 1-5, 3-(Cyano-dimethyl-methyl)-N-[4-methyl-3-(2-oxo-4-phenyl-pyrrolidin-1-yl)-phenyl]-benzamide]: the IC50 is 50 to 100 nM.

As for `Cc1ccc(NC(=O)c2cccc(C(C)(C)C#N)c2)cc1-n1c(=O)n(C)c2ccccc21` [Compound 1-6, 3-(2-cyanopropan-2-yl)-N-(4-methyl-3-(3-methyl-2-oxo-2,3-dihydro-1H-benzo[d]imidazol-1-yl)phenyl)benzamide], the IC50 fell in the range of 50 to 100 nM.

`Cc1ccc(NC(=O)c2cccc(C(C)(C)C#N)c2)cc1N1CC(c2ccccc2)OC1=O` (stereo not drawn) [Compound 1-7, 3-(Cyano-dimethyl-methyl)-N-[4-methyl-3-(2-oxo-5-phenyl-oxazolidin-3-yl)-phenyl]-benzamide] had an IC50 of 50 to 100 nM.

For the compound `Cc1ccc(NC(=O)c2cccc(C(C)(C)C#N)c2)cc1N1CCN(c2ccccc2)C1=O` [Compound 1-8, 3-(Cyano-dimethyl-methyl)-N-[4-methyl-3-(2-oxo-3-phenyl-imidazolidin-1-yl)-phenyl]-benzamide], the IC50 was > 100 nM.

`COc1ccc2c(c1)n(-c1cc(NC(=O)c3cccc(C(C)(C)C#N)c3)ccc1C)c(=O)n2C` [Compound 1-9, 3-(Cyano-dimethyl-methyl)-N-[3-(6-methoxy-3-methyl-2-oxo-2,3-dihydro-benzoimidazol-1-yl)-4-methyl-phenyl]-benzamide]: the IC50 is > 100 nM.

For the origin of these results see patent publication US20140323519A1, “HETEROCYCLIC COMPOUNDS AS B-RAF INHIBITORS FOR TREATMENT OF CANCER” (MERCK SHARP & DOHME CORP., priority 2011, published 2014).
